# Source: ChEMBL document CHEMBL1201862, “PubChem BioAssay data set” (2004)
# The source made the active and inactive calls.
# Experiments:
# [1] = molecular target: T1, Tyrosine-protein phosphatase non-receptor type 11 (Homo sapiens, UniProt Q06124); experiment: PTPN11 enzyme inhibitors – biochemical, selectivity assay for STEP inhibitor project, dose response (AID 602367); type: functional; conditions: read-out: IC50_Mean
# T1 sequence (Q06124 whole entry): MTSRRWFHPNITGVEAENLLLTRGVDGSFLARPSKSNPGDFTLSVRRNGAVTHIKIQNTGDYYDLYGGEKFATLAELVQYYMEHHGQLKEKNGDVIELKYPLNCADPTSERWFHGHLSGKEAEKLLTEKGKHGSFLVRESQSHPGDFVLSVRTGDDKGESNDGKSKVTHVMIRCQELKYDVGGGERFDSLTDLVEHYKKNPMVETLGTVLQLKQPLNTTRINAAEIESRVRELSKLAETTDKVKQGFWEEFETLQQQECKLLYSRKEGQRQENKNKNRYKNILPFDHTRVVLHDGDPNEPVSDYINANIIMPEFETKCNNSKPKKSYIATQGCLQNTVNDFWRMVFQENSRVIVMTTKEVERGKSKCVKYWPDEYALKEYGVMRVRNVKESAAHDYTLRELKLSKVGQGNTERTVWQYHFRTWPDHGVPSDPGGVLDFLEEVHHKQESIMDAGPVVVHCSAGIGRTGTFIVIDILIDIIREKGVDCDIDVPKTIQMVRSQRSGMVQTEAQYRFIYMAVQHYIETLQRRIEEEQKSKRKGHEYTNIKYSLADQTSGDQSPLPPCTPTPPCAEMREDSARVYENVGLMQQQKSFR
# [2] = molecular target: Dual specificity protein phosphatase 3 (Homo sapiens, UniProt P51452); experiment: VHR phosphatase inhibition, dose response, selectivity assay for STEP inhibitor project, biochemical (AID 602374); type: functional; conditions: read-out: IC50_Mean
# [3] = molecular target: T2, Tyrosine-protein phosphatase non-receptor type 5 (Homo sapiens, UniProt P54829); experiment: PTPN5 enzyme inhibition – biochemical, fluorescence intensity, uHTS hits, confirmation (AID 602372); type: functional; conditions: read-out: IC50_Mean
# T2 sequence (P54829 whole entry): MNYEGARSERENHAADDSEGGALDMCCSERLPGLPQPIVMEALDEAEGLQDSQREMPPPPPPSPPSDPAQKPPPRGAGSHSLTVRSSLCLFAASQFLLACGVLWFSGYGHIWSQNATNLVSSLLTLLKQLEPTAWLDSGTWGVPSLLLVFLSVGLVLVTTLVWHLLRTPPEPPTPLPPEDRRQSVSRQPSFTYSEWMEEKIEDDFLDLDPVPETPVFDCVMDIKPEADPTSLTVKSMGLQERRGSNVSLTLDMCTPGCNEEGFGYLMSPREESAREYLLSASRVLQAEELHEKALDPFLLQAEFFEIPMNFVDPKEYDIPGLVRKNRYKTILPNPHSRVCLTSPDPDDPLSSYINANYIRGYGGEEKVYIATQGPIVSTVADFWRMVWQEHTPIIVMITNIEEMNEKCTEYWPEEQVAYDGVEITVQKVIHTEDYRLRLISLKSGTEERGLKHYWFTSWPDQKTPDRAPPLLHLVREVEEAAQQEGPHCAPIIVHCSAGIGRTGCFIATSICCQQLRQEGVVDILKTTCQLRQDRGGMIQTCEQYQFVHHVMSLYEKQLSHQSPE
# [4] = test system: HEK293; experiment: optical interference in Abeta FP readout, dose response, artefact control for IDE activator project, biochemical, fluorescence polarization (AID 588442); type: functional, cell-based; conditions: Homo sapiens
# [5] = test system: HEK293; experiment: membrane integrity loss in HEK cells – cell-based, fluorescence, cytotoxicity control for IDE activator project, dose response (AID 588440); type: functional; conditions: Homo sapiens;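 also: cytotoxicity by LDH release measuring loss of membrane integrity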
# [6] = molecular target: T3, Insulin-degrading enzyme (Homo sapiens, UniProt P14735); experiment: cellular IDE activation of Abeta substrate cleavage – fluorescence polarization, HEK cells, dose response (AID 588439); type: functional, cell-based
# T3 sequence (P14735 whole entry): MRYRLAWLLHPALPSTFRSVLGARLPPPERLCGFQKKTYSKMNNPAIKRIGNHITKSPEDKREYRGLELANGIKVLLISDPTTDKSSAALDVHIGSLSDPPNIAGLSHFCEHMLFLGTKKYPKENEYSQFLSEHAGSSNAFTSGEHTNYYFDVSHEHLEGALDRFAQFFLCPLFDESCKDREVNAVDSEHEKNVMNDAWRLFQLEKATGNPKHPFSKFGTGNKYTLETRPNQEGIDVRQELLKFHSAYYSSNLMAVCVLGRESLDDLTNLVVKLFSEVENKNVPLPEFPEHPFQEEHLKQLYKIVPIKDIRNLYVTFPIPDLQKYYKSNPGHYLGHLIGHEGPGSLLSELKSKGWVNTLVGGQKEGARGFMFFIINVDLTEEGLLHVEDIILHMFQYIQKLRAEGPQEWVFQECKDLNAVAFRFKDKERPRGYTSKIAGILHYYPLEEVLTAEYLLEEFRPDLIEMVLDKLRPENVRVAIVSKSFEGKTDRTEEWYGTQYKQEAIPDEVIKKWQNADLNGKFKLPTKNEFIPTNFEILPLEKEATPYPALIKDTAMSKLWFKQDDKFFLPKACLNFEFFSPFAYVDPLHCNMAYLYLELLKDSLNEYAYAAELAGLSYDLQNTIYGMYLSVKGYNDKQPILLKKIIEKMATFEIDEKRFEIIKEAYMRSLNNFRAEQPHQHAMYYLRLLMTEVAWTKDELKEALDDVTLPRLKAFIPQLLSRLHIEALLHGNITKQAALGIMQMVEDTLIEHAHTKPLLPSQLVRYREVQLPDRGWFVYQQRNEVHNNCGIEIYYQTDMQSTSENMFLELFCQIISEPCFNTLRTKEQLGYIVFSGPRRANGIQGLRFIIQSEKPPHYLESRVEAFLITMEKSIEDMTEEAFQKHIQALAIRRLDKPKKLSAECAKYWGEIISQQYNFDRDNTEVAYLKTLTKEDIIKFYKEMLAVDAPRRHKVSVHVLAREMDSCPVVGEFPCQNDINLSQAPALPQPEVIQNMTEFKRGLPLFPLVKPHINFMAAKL
# [7] = molecular target: T3, Insulin-degrading enzyme; experiment: recombinant IDE activation, cell-free – biochemical, fluorescence polarization, counter-screen for IDE activator project, dose response (AID 588681)
# [8] = molecular target: T4, DNA repair and recombination protein RAD54-like (Homo sapiens, UniProt Q92698); experiment: RAD54 Holliday junction migration blockers – biochemical, fluorescence, cherry-picked samples, dose series, confirmation (AID 651657); type: functional
# T4 sequence (Q92698 whole entry): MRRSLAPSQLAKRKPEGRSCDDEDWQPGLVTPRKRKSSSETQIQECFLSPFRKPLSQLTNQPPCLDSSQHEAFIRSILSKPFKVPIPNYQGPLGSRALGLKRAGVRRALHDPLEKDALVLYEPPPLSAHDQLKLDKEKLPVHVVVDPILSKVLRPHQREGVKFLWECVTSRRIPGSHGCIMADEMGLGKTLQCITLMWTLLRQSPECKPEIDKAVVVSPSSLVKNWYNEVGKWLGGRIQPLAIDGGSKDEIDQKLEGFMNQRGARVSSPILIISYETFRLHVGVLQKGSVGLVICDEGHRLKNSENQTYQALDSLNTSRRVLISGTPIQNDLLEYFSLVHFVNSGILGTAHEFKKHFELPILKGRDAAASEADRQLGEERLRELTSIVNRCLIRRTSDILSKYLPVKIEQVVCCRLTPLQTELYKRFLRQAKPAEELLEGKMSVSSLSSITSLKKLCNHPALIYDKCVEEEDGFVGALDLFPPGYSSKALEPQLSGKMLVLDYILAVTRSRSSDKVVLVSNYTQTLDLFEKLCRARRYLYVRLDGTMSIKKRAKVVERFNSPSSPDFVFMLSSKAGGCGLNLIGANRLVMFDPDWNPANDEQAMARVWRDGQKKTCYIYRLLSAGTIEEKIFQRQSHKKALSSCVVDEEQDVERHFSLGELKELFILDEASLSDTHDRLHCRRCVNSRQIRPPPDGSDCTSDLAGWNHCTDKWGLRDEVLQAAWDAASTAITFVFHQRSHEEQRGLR
# [9] = molecular target: T5, DNA repair protein RAD52 homolog (Homo sapiens, UniProt P43351); type: functional, biochemical
# T5 sequence (P43351 whole entry): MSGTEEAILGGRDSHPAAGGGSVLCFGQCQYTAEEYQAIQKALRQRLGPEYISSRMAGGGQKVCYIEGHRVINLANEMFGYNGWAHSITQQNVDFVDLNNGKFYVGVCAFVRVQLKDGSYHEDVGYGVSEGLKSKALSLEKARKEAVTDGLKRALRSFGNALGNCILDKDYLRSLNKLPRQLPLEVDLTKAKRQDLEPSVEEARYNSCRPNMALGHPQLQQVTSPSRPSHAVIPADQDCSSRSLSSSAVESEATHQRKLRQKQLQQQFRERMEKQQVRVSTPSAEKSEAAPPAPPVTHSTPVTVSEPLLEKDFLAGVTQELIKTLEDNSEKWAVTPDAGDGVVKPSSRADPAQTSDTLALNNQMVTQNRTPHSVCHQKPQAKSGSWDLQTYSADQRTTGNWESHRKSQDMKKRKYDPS
# [10] = intracellular Trypanosoma cruzi inhibitors in host cells – cell-based, plate reader, cherry-pick samples, set 3, dose response (AID 651818); type: functional;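 also: compounds incubated with infected cells for about four days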
# [11] = molecular target: T6, Caspase-6 (Homo sapiens, UniProt P55212); experiment: inhibition of CASP6 peptide cleavage – biochemical, VEID-R110 fluorescence, cherry-pick, dose response (AID 720632)
# T6 sequence (P55212 whole entry): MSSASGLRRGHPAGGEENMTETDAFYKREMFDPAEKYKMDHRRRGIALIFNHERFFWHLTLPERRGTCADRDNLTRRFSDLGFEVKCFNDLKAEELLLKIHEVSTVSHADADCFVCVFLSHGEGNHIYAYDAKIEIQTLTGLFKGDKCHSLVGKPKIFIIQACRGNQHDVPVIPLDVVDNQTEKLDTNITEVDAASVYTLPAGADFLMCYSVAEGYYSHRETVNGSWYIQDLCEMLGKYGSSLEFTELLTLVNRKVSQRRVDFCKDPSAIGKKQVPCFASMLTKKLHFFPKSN
# [12] = molecular target: T7, Polyadenylate-binding protein 1 (Homo sapiens, UniProt P11940); experiment: MLLE domain peptide-binding blockers, IC50 – biochemical, fluorescence polarization, FITC-PAM2 peptide, dose response (AID 602259); type: functional; conditions: read-out: IC50_Mean
# [13] = molecular target: T8, Histone-lysine N-methyltransferase NSD2 (Homo sapiens, UniProt O96028); type: biochemical
# T8 sequence (O96028 whole entry): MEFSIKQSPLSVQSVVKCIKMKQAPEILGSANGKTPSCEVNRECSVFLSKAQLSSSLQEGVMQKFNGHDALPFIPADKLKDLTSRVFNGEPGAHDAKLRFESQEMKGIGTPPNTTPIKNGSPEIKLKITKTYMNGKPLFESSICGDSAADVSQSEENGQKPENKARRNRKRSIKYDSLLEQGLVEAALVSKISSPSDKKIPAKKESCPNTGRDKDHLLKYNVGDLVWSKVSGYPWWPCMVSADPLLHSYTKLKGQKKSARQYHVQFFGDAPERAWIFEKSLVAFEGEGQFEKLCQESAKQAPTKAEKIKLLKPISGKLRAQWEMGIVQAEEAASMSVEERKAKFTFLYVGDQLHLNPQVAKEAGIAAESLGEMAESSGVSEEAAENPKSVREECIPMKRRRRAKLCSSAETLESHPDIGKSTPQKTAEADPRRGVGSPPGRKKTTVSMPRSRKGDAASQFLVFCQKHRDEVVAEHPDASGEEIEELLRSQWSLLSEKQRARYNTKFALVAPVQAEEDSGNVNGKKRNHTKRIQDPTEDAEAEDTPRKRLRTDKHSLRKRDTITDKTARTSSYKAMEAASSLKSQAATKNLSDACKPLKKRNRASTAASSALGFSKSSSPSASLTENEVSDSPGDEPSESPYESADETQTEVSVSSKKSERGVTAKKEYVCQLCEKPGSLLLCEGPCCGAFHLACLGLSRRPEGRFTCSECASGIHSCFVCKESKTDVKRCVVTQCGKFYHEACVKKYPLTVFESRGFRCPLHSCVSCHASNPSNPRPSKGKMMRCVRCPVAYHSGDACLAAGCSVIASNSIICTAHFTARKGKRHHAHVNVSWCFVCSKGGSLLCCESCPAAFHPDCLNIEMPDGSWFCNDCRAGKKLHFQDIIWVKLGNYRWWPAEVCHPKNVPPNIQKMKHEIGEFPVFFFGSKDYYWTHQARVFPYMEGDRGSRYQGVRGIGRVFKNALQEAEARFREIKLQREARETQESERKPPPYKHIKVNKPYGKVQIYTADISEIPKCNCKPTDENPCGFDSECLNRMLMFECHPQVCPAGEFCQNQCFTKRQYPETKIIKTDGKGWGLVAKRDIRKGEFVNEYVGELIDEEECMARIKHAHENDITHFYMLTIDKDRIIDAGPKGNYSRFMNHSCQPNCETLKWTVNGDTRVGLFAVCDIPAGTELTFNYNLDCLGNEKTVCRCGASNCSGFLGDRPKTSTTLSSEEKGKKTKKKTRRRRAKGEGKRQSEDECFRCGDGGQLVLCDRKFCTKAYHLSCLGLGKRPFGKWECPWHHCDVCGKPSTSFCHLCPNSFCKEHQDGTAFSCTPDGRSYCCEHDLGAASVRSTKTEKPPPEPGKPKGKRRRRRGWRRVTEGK
# [14] = molecular target: T7, Polyadenylate-binding protein 1; experiment: MLLE binding blockers, Cy5 peptide tracer – biochemical, fluorescence polarization, Cy5-PAM2 peptide, secondary, miRNA deadenylation inhibitor project, dose response (AID 602260); type: functional; conditions: read-out: IC50_Mean
# Chain of Dual specificity protein phosphatase 3 (P51452 whole entry): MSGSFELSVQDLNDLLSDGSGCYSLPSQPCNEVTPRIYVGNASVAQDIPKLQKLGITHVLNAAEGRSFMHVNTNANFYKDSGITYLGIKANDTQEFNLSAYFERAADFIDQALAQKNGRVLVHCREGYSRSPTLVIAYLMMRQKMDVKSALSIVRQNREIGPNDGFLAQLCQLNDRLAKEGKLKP
# T7 sequence (P11940 whole entry, the tested form may be a part): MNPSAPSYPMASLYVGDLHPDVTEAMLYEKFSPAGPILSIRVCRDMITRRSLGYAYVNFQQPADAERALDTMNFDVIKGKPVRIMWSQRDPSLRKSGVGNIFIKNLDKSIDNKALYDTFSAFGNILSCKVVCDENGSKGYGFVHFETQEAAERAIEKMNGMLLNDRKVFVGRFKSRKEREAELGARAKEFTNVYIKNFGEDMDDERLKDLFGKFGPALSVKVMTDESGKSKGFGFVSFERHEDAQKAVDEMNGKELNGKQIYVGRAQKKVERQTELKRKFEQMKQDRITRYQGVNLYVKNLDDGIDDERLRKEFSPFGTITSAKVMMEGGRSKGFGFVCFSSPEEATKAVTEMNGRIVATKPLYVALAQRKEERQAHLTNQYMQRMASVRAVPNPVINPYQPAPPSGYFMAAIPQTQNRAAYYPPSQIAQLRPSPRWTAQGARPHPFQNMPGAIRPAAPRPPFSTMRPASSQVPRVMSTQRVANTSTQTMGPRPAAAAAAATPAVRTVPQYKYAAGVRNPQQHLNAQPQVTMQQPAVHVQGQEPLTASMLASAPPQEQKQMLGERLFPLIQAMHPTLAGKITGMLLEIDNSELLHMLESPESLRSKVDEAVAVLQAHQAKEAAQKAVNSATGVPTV
structure (smiles),measurement,setting,value
Cc1ccc(C(=S)N2CCN(Cc3ccccc3)CC2)s1,IC50,[1],3.1 µM (active)
same,IC50,[2],0.997 µM (active)
same,IC50,[3],16.5 µM (active)
CC(=O)Nc1ccc(S(=O)(=O)NCCc2ccccn2)cc1,EC50,[4],> 56 µM (inactive)
same,IC50,[5],> 89.2 µM (inactive)
same,EC50,[6],> 54.7 µM (inactive)
same,EC50,[7],> 54.7 µM (inactive)
CN(C)CCNc1ncnc2sc(-c3ccccc3)cc12,AC50,[8],27.2 µM (active)
same,AC50,[9],9 µM (active)
C[C@@H]1CN([C@H](C)CO)C(=O)c2cccc(NC(=O)c3nc4ccccc4s3)c2O[C@H]1CN(C)S(=O)(=O)c1ccc(Cl)cc1,AC50,[10],0.964 µM (active)
C[C@H](CO)N1C[C@H](C)[C@H](CN(C)S(=O)(=O)c2ccc(F)cc2)Oc2ccc(NS(=O)(=O)c3ccc(F)cc3)cc2C1=O,AC50,[10],7.7 µM (active)
C[C@H]1CN([C@@H](C)CO)C(=O)Cc2cc(NC(=O)Nc3cccc4ccccc34)ccc2O[C@@H]1CN(C)CC1CCCCC1,AC50,[10],4.35 µM (active)
Nc1ccc2c(O)cc(S(=O)(=O)O)cc2c1,IC50,[1],1.04 µM (active)
same,AC50,[11],2.15 µM (active)
same,IC50,[2],3.43 µM (active)
same,IC50,[12],> 66 µM (inactive)
same,IC50,[3],33.4 µM (inactive)
same,AC50,[13],6.49 µM (active)
same,IC50,[14],> 66 µM (inactive)
